Where two headings read alike, the source gives them in different places.
Tests used:
HCT-15 = assay: NCI in-vitro testing, HCT-15 (Colon Cancer)
SF-268 = assay: NCI in-vitro testing, SF-268 (CNS Cancer)
SN12C = assay: NCI in-vitro testing, SN12C (Renal Cancer)
OVCAR-4 = assay: NCI in-vitro testing, OVCAR-4 (Ovarian Cancer)
NCI-H460 = assay: NCI in-vitro testing, NCI-H460 (Non-Small Cell Lung Cancer)
UACC-62 = assay: NCI in-vitro testing, UACC-62 (Melanoma)
SK-MEL-28 = assay: NCI in-vitro testing, SK-MEL-28 (Melanoma)
SNB-19 = assay: NCI in-vitro testing, SNB-19 (CNS Cancer)
Sw620 = assay: Cell viability, Sw620 colon cancer cells; format: cell-based, human; settings: Homo sapiens, SW-620; Sw620, Colon; read-out: IC50 (−LogM) (converted)
OVCAR-5 = assay: NCI in-vitro testing, OVCAR-5 (Ovarian Cancer)
H23 = assay: Cell viability, H23 lung cancer cells; format: cell-based, human; settings: Homo sapiens, NCI-H23; H23, Lung; read-out: IC50 (−LogM) (converted)
786-0 = assay: NCI in-vitro testing, 786-0 (Renal Cancer)
KM12 = assay: NCI in-vitro testing, KM12 (Colon Cancer)
U251 = assay: NCI in-vitro testing, U251 (CNS Cancer)
NCI/ADR-RES = assay: NCI in-vitro testing, NCI/ADR-RES (Breast Cancer)
Hey = assay: Cell viability, Hey ovary cancer cells; format: cell-based
[1] = Homo sapiens, read-out: Log10 GI50 (converted)

OCc1cn(Cc2ccc(Cl)cc2)c2ccccc12 [Oncrasin K060, 1H-Indole-3-methanol, 1-[(4-chlorophenyl)methyl]-]
TGI (HCT-15; HCT-15): 2.58E−5 Molar | Percent Growth (HCT-15; HCT-15, Log10 Concentration −4.0 Molar): −31% | Percent Growth (HCT-15; HCT-15, Log10 Concentration −5.0 Molar): 21% | Percent Growth (HCT-15; HCT-15, Log10 Concentration −6.0 Molar): 69% | Percent Growth (HCT-15; HCT-15, Log10 Concentration −7.0 Molar): 90% | Percent Growth (HCT-15; HCT-15, Log10 Concentration −8.0 Molar): 99% | GI50 (HCT-15; Homo sapiens, HCT-15): 2.52 µM | CC50 (HCT-15; Homo sapiens, HCT-15, read-out: LC50): > 100 µM | GI50 (HCT-15; Homo sapiens, HCT-15, read-out: Log10 GI50 (converted)): 2.51 µM | GI50 (SF-268; Homo sapiens, SF-268): 12.4 µM | CC50 (SF-268; Homo sapiens, SF-268, read-out: LC50): > 100 µM | GI50 (SF-268; Homo sapiens, SF-268, read-out: Log10 GI50 (converted)): 12.3 µM | TGI (SF-268; SF-268): 4.58E−5 Molar | Percent Growth (SF-268; SF-268, Log10 Concentration −4.0 Molar): −30% | Percent Growth (SF-268; SF-268, Log10 Concentration −5.0 Molar): 56% | Percent Growth (SF-268; SF-268, Log10 Concentration −6.0 Molar): 94% | Percent Growth (SF-268; SF-268, Log10 Concentration −7.0 Molar): 98% | Percent Growth (SF-268; SF-268, Log10 Concentration −8.0 Molar): 106% | TGI (SN12C): 1.94E−5 Molar | GI50 (SN12C; Homo sapiens): 3.56 µM | CC50 (SN12C; Homo sapiens, read-out: LC50): 87.2 µM | GI50 (SN12C; [1]): 3.55 µM | Percent Growth (SN12C; Log10 Concentration −4.0 Molar): −68% | Percent Growth (SN12C; Log10 Concentration −5.0 Molar): 27% | Percent Growth (SN12C; Log10 Concentration −6.0 Molar): 78% | Percent Growth (SN12C; Log10 Concentration −7.0 Molar): 93% | Percent Growth (SN12C; Log10 Concentration −8.0 Molar): 97% | GI50 (OVCAR-4; Homo sapiens, OVCAR-4): 0.34 µM | CC50 (OVCAR-4; Homo sapiens, OVCAR-4, read-out: LC50): > 100 µM | GI50 (OVCAR-4; Homo sapiens, OVCAR-4, read-out: Log10 GI50 (converted)): 0.339 µM | TGI (OVCAR-4; OVCAR-4): 1.80E−5 Molar | Percent Growth (OVCAR-4; OVCAR-4, Log10 Concentration −4.0 Molar): −29% | Percent Growth (OVCAR-4; OVCAR-4, Log10 Concentration −5.0 Molar): 10% | Percent Growth (OVCAR-4; OVCAR-4, Log10 Concentration −6.0 Molar): 31% | Percent Growth (OVCAR-4; OVCAR-4, Log10 Concentration −7.0 Molar): 71% | Percent Growth (OVCAR-4; OVCAR-4, Log10 Concentration −8.0 Molar): 94% | TGI (NCI-H460): 3.79E−5 Molar | GI50 (NCI-H460; Homo sapiens, NCI-H460): 0.0888 µM | CC50 (NCI-H460; Homo sapiens, NCI-H460, read-out: LC50): > 100 µM | GI50 (NCI-H460; Homo sapiens, NCI-H460, read-out: Log10 GI50 (converted)): 0.0891 µM | Percent Growth (NCI-H460; Log10 Concentration −4.0 Molar): −9% | Percent Growth (NCI-H460; Log10 Concentration −5.0 Molar): 13% | Percent Growth (NCI-H460; Log10 Concentration −6.0 Molar): 20% | Percent Growth (NCI-H460; Log10 Concentration −7.0 Molar): 48% | Percent Growth (NCI-H460; Log10 Concentration −8.0 Molar): 79% | GI50 (UACC-62; Homo sapiens, UACC-62): 0.0451 µM | CC50 (UACC-62; Homo sapiens, UACC-62, read-out: LC50): 11.4 µM | GI50 (UACC-62; Homo sapiens, UACC-62, read-out: Log10 GI50 (converted)): 0.0447 µM | TGI (UACC-62; UACC-62): 8.97E−7 Molar | Percent Growth (UACC-62; UACC-62, Log10 Concentration −4.0 Molar): −94% | Percent Growth (UACC-62; UACC-62, Log10 Concentration −5.0 Molar): −47% | Percent Growth (UACC-62; UACC-62, Log10 Concentration −6.0 Molar): −2% | Percent Growth (UACC-62; UACC-62, Log10 Concentration −7.0 Molar): 35% | Percent Growth (UACC-62; UACC-62, Log10 Concentration −8.0 Molar): 79% | GI50 (SK-MEL-28; Homo sapiens, SK-MEL-28): 18 µM | CC50 (SK-MEL-28; Homo sapiens, SK-MEL-28, read-out: LC50): > 100 µM | GI50 (SK-MEL-28; Homo sapiens, SK-MEL-28, read-out: Log10 GI50 (converted)): 17.8 µM | TGI (SK-MEL-28; SK-MEL-28): 4.44E−5 Molar | Percent Growth (SK-MEL-28; SK-MEL-28, Log10 Concentration −4.0 Molar): −15% | Percent Growth (SK-MEL-28; SK-MEL-28, Log10 Concentration −5.0 Molar): 82% | Percent Growth (SK-MEL-28; SK-MEL-28, Log10 Concentration −6.0 Molar): 93% | Percent Growth (SK-MEL-28; SK-MEL-28, Log10 Concentration −7.0 Molar): 99% | Percent Growth (SK-MEL-28; SK-MEL-28, Log10 Concentration −8.0 Molar): 93% | GI50 (SNB-19; Homo sapiens, SNB-19): 17.6 µM | CC50 (SNB-19; Homo sapiens, SNB-19, read-out: LC50): > 100 µM | GI50 (SNB-19; Homo sapiens, SNB-19, read-out: Log10 GI50 (converted)): 17.8 µM | TGI (SNB-19; SNB-19): 5.69E−5 Molar | Percent Growth (SNB-19; SNB-19, Log10 Concentration −4.0 Molar): −24% | Percent Growth (SNB-19; SNB-19, Log10 Concentration −5.0 Molar): 74% | Percent Growth (SNB-19; SNB-19, Log10 Concentration −6.0 Molar): 91% | Percent Growth (SNB-19; SNB-19, Log10 Concentration −7.0 Molar): 97% | Percent Growth (SNB-19; SNB-19, Log10 Concentration −8.0 Molar): 103% | IC50 (Sw620): 5.01 µM | GI50 (OVCAR-5; Homo sapiens, OVCAR-5): < 0.01 µM | CC50 (OVCAR-5; Homo sapiens, OVCAR-5, read-out: LC50): > 100 µM | GI50 (OVCAR-5; Homo sapiens, OVCAR-5, read-out: Log10 GI50 (converted)): < 0.01 µM | TGI (OVCAR-5; OVCAR-5): 3.72E−7 Molar | Percent Growth (OVCAR-5; OVCAR-5, Log10 Concentration −4.0 Molar): −50% | Percent Growth (OVCAR-5; OVCAR-5, Log10 Concentration −5.0 Molar): −23% | Percent Growth (OVCAR-5; OVCAR-5, Log10 Concentration −6.0 Molar): −7% | Percent Growth (OVCAR-5; OVCAR-5, Log10 Concentration −7.0 Molar): 10% | Percent Growth (OVCAR-5; OVCAR-5, Log10 Concentration −8.0 Molar): 43% | IC50 (H23): 15.8 µM | TGI (786-0; 786-0): 2.19E−5 Molar | Percent Growth (786-0; 786-0, Log10 Concentration −4.0 (Molar)): −52% | Percent Growth (786-0; 786-0, Log10 Concentration −5.0 (Molar)): 27% | Percent Growth (786-0; 786-0, Log10 Concentration −6.0 (Molar)): 76% | Percent Growth (786-0; 786-0, Log10 Concentration −7.0 (Molar)): 88% | Percent Growth (786-0; 786-0, Log10 Concentration −8.0 (Molar)): 99% | GI50 (786-0; Homo sapiens, 786-0): 34 µM | CC50 (786-0; Homo sapiens, 786-0, read-out: LC50): 94.7 µM | GI50 (786-0; Homo sapiens, 786-0, read-out: Log10 GI50 (converted)): 3.39 µM | GI50 (KM12; Homo sapiens, KM12): 18.3 µM | CC50 (KM12; Homo sapiens, KM12, read-out: LC50): 9.44 µM | GI50 (KM12; Homo sapiens, KM12, read-out: Log10 GI50 (converted)): 18.2 µM | TGI (KM12; KM12): 1.15E−6 Molar | Percent Growth (KM12; KM12, Log10 Concentration −4.0 Molar): −64% | Percent Growth (KM12; KM12, Log10 Concentration −5.0 Molar): 87% | Percent Growth (KM12; KM12, Log10 Concentration −6.0 Molar): 102% | Percent Growth (KM12; KM12, Log10 Concentration −7.0 Molar): 113% | Percent Growth (KM12; KM12, Log10 Concentration −8.0 Molar): 108% | GI50 (U251; Homo sapiens, U-251): 2.46 µM | CC50 (U251; Homo sapiens, U-251, read-out: LC50): > 100 µM | GI50 (U251; Homo sapiens, U-251, read-out: Log10 GI50 (converted)): 2.45 µM | TGI (U251; U251): 2.63E−5 Molar | Percent Growth (U251; U251, Log10 Concentration −4.0 Molar): −35% | Percent Growth (U251; U251, Log10 Concentration −5.0 Molar): 25% | Percent Growth (U251; U251, Log10 Concentration −6.0 Molar): 55% | Percent Growth (U251; U251, Log10 Concentration −7.0 Molar): 84% | Percent Growth (U251; U251, Log10 Concentration −8.0 Molar): 93% | TGI (NCI/ADR-RES): 3.32E−5 Molar | GI50 (NCI/ADR-RES; Homo sapiens): 9.22 µM | CC50 (NCI/ADR-RES; Homo sapiens, read-out: LC50): > 100 µM | GI50 (NCI/ADR-RES; [1]): 9.12 µM | Percent Growth (NCI/ADR-RES; Log10 Concentration −4.0 Molar): −45% | Percent Growth (NCI/ADR-RES; Log10 Concentration −5.0 Molar): 49% | Percent Growth (NCI/ADR-RES; Log10 Concentration −6.0 Molar): 86% | Percent Growth (NCI/ADR-RES; Log10 Concentration −7.0 Molar): 94% | Percent Growth (NCI/ADR-RES; Log10 Concentration −8.0 Molar): 103% | IC50 (Hey): 10 µM

Reference: patent US8883841B2, “Oncogenic ras-specific cytotoxic compound and methods of use thereof” (The Board of Regents of the University of Texas System, priority 2005, dated 2014)
